Measured values from PMC11721672, “Design, Structure–Activity Relationships, and Computational Modeling Studies of a Series of α-Helix Biased, Ultra-Short Glucagon-like Peptide-1 Receptor Agonists” (Molecules, 2024).
Read-outs that look alike come from different tables or passages of the source. Square brackets hold non-standard residues; d marks the D form. Peptide text beside a SMILES is read from it. Bip = N[C@@H](Cc1ccc(-c2ccccc2)cc1)C(=O)O; αMePhe(2-F) = C[C@](N)(Cc1ccccc1F)C(=O)O; Phe(2-F) = N[C@@H](Cc1ccccc1F)C(=O)O; αMeF = C[C@](N)(Cc1ccccc1)C(=O)O; Aib = CC(C)(N)C(=O)O

Experiments:
[1] = biological target: human GLP-1 receptor (hGLP-1R); design: method as in PMID 31031702; conditions: read-out: potency at the human GLP-1 receptor; cited from earlier work
hGLP1 receptor = biological target: T1, hGLP1 receptor (Homo sapiens, UniProt P43220); experiment: GLP-1 receptor agonism assay (HTRF cAMP, HEK cells co-expressing hGLP1 receptor and CRE-Luciferase); format: cell-based; conditions: for Emax: HEK293, Table 6 potency profile; for decreased potency (Aib/Ala comparison): versus respective parent analog; for dpEC50 (contribution of Cα-methylation): dpEC50 = pEC50 (Aib) − pEC50 (Ala) − 0.97, Aib peptide versus the Ala peptide of the same line
T1 construct: expressed in transfected cells; host or cells: HEK (human embryonic kidney) cells co-expressing hGLP1 receptor and CRE-Luciferase
Description: Human embryonic kidney cells (HEK) co-expressing the hGLP1 receptor and CRE-Luciferase construct were used to determine agonist potency in this assay. The cells were thawed briefly at 37 °C, transferred to a sterile tube, and re-suspended in complete media at 37 °C. Cells were centrifuged at 1000 rpm for 5 min and collected; the cells were then re-suspended in an assay buffer consisting of Dulbecco’s phosphate-buffered saline (DPBS, GIBCO) with 500 μM of the phosphodiesterase inhibitor 3-isobutyl-1-methylxanthine (IBMX). The assay medium had 0% serum albumin, as specified in Table 1, Table 2, Table 3 and Table 4. The optimal cell density was determined to be 1000 cells/well. Cells were added to wells in 384-well plates containing appropriate pre-prepared dilutions of compounds (test peptides or reference compound exendin-4), sealed, and incubated with CO2 for 30 min. Test peptide solutions were diluted from 10 mM stock solutions to be used in two separate runs (performed in triplicate) from a maximal concentration of 1.0 μM, with 11 concentrations tested for each peptide using serial 1:3 dilution from this maximal concentration. […] The agonist assay was a homogeneous time-resolved fluorescence (HTRF) assay (Cisbio). Following incubation of the cells for 30 min with test or reference peptides, 5 μL of the cAMP acceptor cAMP-d2, prepared previously as a working solution from frozen stock (1:20 dilution), was added to each well of the assay plate along with 5 μL of anti-cAMP antibody-cryptate working solution (diluted 1:20 from frozen stock). The wells were incubated for 1 h at room temperature, and fluorescence was then read at 665 and 615 nm with an Envision reader with a TRF laser. Data were saved and analyzed using Prism software (GraphPad). Concentration–response analysis was performed using 4-parameter logistic fits of the resulting data, and EC50 values were obtained for each test and reference compound.

[2] = Table 2, Ala-scanning, 0% HSA, >1000 nM = out of range, read-out: cAMP EC50
[3] = Table 1, Phe6 modifications, 0% HSA, average of two independent experiments in triplicate (RXL-3039 tested once), read-out: cAMP EC50

T1 sequence (P43220 24-463): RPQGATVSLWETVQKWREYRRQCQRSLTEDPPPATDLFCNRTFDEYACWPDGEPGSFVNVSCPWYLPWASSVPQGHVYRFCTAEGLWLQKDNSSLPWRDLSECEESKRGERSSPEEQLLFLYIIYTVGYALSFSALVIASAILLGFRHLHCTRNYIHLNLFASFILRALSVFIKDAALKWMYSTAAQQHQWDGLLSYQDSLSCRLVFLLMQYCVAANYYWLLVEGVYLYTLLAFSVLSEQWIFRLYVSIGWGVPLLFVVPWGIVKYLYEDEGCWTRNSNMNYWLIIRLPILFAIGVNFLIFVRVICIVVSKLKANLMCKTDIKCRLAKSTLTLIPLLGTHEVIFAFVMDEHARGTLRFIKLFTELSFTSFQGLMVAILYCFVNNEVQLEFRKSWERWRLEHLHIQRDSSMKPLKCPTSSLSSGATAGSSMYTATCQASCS

| Compound | Emax (hGLP1 receptor) | EC50 (hGLP1 receptor; [2]) | further results |
| --- | --- | --- | --- |
| semaglutide | – | – | EC50 [1]: 0.0062 nM |
| C[C@H](NC(=O)[C@H](CC(=O)O)NC(=O)[C@H](CO)NC(=O)[C@@H](NC(=O)[C@H](Cc1ccccc1F)NC(=O)[C@@H](NC(=O)CNC(=O)[C@H](CCC(=O)O)NC(=O)C(C)(C)NC(=O)[C@@H](N)Cc1c[nH]cn1)[C@@H](C)O)[C@@H](C)O)C(=O)N[C@@H](Cc1ccc(-c2ccccc2)cc1)C(N)=O [RXL-3008, His-Aib-Glu-Gly-Thr-Phe(2-F)-Thr-Ser-Asp-Ala-Bip-NH2] (H-H[Aib]EGT[Phe(2-F)]TSDA[Bip]-NH2) | 43.6% | > 1000 nM | decreased potency by Ala substitution in RXL-3000 (hGLP1 receptor; Ala-scanning, versus RXL-3000): > 1000 fold; decreased potency (Aib/Ala comparison) (hGLP1 receptor): > 10,000 fold |
| C[C@@H](O)[C@H](NC(=O)CNC(=O)[C@H](CCC(=O)O)NC(=O)C(C)(C)NC(=O)[C@@H](N)Cc1c[nH]cn1)C(=O)N[C@@](C)(Cc1ccccc1)C(=O)N[C@H](C(=O)N[C@@H](CO)C(=O)N[C@@H](CC(=O)O)C(=O)N[C@@H](Cc1ccc(-c2ccccc2)cc1)C(=O)N[C@@H](Cc1ccc(-c2ccccc2)cc1)C(N)=O)[C@@H](C)O [RXL-3020, His-Aib-Glu-Gly-Thr-α-Me-Phe-Thr-Ser-Asp-Bip-Bip-NH2] (H-H[Aib]EGT[αMeF]TSD[Bip][Bip]-NH2) | 108% | – | – |
| C[C@H](NC(=O)[C@@H](NC(=O)CNC(=O)[C@H](CCC(=O)O)NC(=O)C(C)(C)NC(=O)[C@@H](N)Cc1c[nH]cn1)[C@@H](C)O)C(=O)N[C@H](C(=O)N[C@@H](CO)C(=O)N[C@@H](CC(=O)O)C(=O)N[C@@H](Cc1ccc(-c2ccccc2)cc1)C(=O)N[C@@H](Cc1ccc(-c2ccccc2)cc1)C(N)=O)[C@@H](C)O [RXL-3038, His-Aib-Glu-Gly-Thr-Ala-Thr-Ser-Asp-Bip-Bip-NH2] (H-H[Aib]EGTATSD[Bip][Bip]-NH2) | 37.4% | > 1000 nM | pEC50 (hGLP1 receptor; Table 4, Ala-scan peptides, 0% HSA): 5.55; decreased potency (Aib/Ala comparison) (hGLP1 receptor): > 1000 fold |
| Cc1ccccc1C[C@H](NC(=O)[C@@H](NC(=O)CNC(=O)[C@H](CCC(=O)O)NC(=O)C(C)(C)NC(=O)[C@@H](N)Cc1c[nH]cn1)[C@@H](C)O)C(=O)N[C@H](C(=O)N[C@@H](CO)C(=O)N[C@@H](CC(=O)O)C(=O)N[C@@H](Cc1ccc(-c2ccccc2)cc1)C(=O)N[C@@H](Cc1ccc(-c2ccccc2)cc1)C(N)=O)[C@@H](C)O [RXL-3013, His-Aib-Glu-Gly-Thr-Phe(2-CH3)-Thr-Ser-Asp-Bip-Bip-NH2] | 98.6% | – | EC50 (hGLP1 receptor; [3]): 2.1 nM |
| C[C@H](NC(=O)C(C)(C)NC(=O)[C@@H](N)Cc1c[nH]cn1)C(=O)NCC(=O)N[C@H](C(=O)N[C@@H](Cc1ccccc1F)C(=O)N[C@H](C(=O)N[C@@H](CO)C(=O)N[C@@H](CC(=O)O)C(=O)N[C@@H](Cc1ccc(-c2ccccc2)cc1)C(=O)N[C@@H](Cc1ccc(-c2ccccc2)cc1)C(N)=O)[C@@H](C)O)[C@@H](C)O [RXL-3003, His-Aib-Ala-Gly-Thr-Phe(2-F)-Thr-Ser-Asp-Bip-Bip-NH2] | 108% | 7.9 nM | – |
| C[C@H](NC(=O)[C@@H](NC(=O)[C@H](Cc1ccccc1F)NC(=O)[C@@H](NC(=O)CNC(=O)[C@H](CCC(=O)O)NC(=O)C(C)(C)NC(=O)[C@@H](N)Cc1c[nH]cn1)[C@@H](C)O)[C@@H](C)O)C(=O)N[C@@H](CC(=O)O)C(=O)N[C@@H](Cc1ccc(-c2ccccc2)cc1)C(=O)N[C@@H](Cc1ccc(-c2ccccc2)cc1)C(N)=O [RXL-3006, His-Aib-Glu-Gly-Thr-Phe(2-F)-Thr-Ala-Asp-Bip-Bip-NH2] (H-H[Aib]EGT[Phe(2-F)]TAD[Bip][Bip]-NH2) | 120% | 8.5 nM | EC50 (hGLP1 receptor; Table 4, Ala-scan peptides, 0% HSA, read-out: pEC50 (converted)): 1.91 nM |
| C[C@@H](O)[C@H](NC(=O)CNC(=O)[C@H](CCC(=O)O)NC(=O)C(C)(C)NC(=O)[C@@H](N)Cc1c[nH]cn1)C(=O)N[C@@](C)(Cc1ccccc1F)C(=O)N[C@H](C(=O)N[C@@H](CO)C(=O)N[C@@H](CC(=O)O)C(=O)NC(C)(C)C(=O)N[C@@H](Cc1ccc(-c2ccccc2)cc1)C(N)=O)[C@@H](C)O [RXL-3051, His-Aib-Glu-Gly-Thr-α-Me-Phe(2-F)-Thr-Ser-Asp-Aib-Bip-NH2] (H-H[Aib]EGT[αMePhe(2-F)]TSD[Aib][Bip]-NH2) | 26.8% | – | decreased potency by Aib substitution (hGLP1 receptor; Aib-scanning, versus parent analog RXL-101): ≥ 100 fold; dpEC50 (contribution of Cα-methylation) (hGLP1 receptor; 0% HSA): −1.34; decreased potency (Aib/Ala comparison) (hGLP1 receptor): > 10,000 fold |
| C[C@@H](O)[C@H](NC(=O)CNC(=O)[C@H](CCC(=O)O)NC(=O)C(C)(C)NC(=O)[C@@H](N)Cc1c[nH]cn1)C(=O)N[C@@H](Cc1ccc(O)cc1)C(=O)N[C@H](C(=O)N[C@@H](CO)C(=O)N[C@@H](CC(=O)O)C(=O)N[C@@H](Cc1ccc(-c2ccccc2)cc1)C(=O)N[C@@H](Cc1ccc(-c2ccccc2)cc1)C(N)=O)[C@@H](C)O [RXL-3021, His-Aib-Glu-Gly-Thr-Tyr-Thr-Ser-Asp-Bip-Bip-NH2] (H-H[Aib]EGTYTSD[Bip][Bip]-NH2) | 100% | – | EC50 (hGLP1 receptor; [3]): 3 nM |
| C[C@@H](O)[C@H](NC(=O)CNC(=O)[C@H](CCC(=O)O)NC(=O)C(C)(C)NC(=O)[C@@H](N)Cc1c[nH]cn1)C(=O)N[C@@](C)(Cc1ccccc1F)C(=O)N[C@H](C(=O)N[C@@H](CO)C(=O)N[C@@H](CC(=O)O)C(=O)N[C@@H](Cc1ccc(-c2ccccc2)cc1)C(=O)N[C@@H](Cc1ccc(-c2ccccc2)cc1)C(N)=O)[C@@H](C)O [RXL-101, His-Aib-Glu-Gly-Thr-α-Me-Phe(2-F)-Thr-Ser-Asp-Bip-Bip-NH2] (H-H[Aib]EGT[αMePhe(2-F)]TSD[Bip][Bip]-NH2) | 117% | – | Cα-methylation pEC50 contribution for position 6 (hGLP1 receptor; pEC50 of RXL-101 minus pEC50 of RXL-3000): 0.97 |
| C[C@@H](O)[C@H](NC(=O)CNC(=O)[C@H](CCC(=O)O)NC(=O)C(C)(C)NC(=O)[C@@H](N)Cc1c[nH]cn1)C(=O)N[C@@](C)(Cc1ccccc1F)C(=O)N[C@H](C(=O)N[C@@H](CO)C(=O)N[C@@H](CC(=O)O)C(=O)N[C@@H](Cc1ccc(-c2ccccc2)cc1)C(=O)NC(C)(C)C(N)=O)[C@@H](C)O [RXL-3052, His-Aib-Glu-Gly-Thr-α-Me-Phe(2-F)-Thr-Ser-Asp-Bip-Aib-NH2] (H-H[Aib]EGT[αMePhe(2-F)]TSD[Bip][Aib]-NH2) | 112% | – | rescue of potency by Aib versus Ala substitution (hGLP1 receptor; Aib analog versus Ala analog at the same position): more than 100 fold; dpEC50 (contribution of Cα-methylation) (hGLP1 receptor; 0% HSA): 1.11 |
| C[C@@H](O)[C@H](NC(=O)CNC(=O)[C@H](CCC(=O)O)NC(=O)C(C)(C)NC(=O)[C@@H](N)Cc1c[nH]cn1)C(=O)N[C@@H](Cc1ccc(-c2ccccc2)cc1)C(=O)N[C@H](C(=O)N[C@@H](CO)C(=O)N[C@@H](CC(=O)O)C(=O)N[C@@H](Cc1ccc(-c2ccccc2)cc1)C(=O)N[C@@H](Cc1ccc(-c2ccccc2)cc1)C(N)=O)[C@@H](C)O [RXL-3024, His-Aib-Glu-Gly-Thr-Bip-Thr-Ser-Asp-Bip-Bip-NH2] (H-H[Aib]EGT[Bip]TSD[Bip][Bip]-NH2) | 102% | – | EC50 (hGLP1 receptor; [3]): 10.8 nM |
